# Reference: ChEMBL document CHEMBL1201862, “PubChem BioAssay data set” (2004)
# Calls of active or inactive are those of the source.
# What was measured:
# [1] = tested on: INS1; test: INS-1E survival protection against cytokine death – cell-based, luminescence, retest, dose response (AID 449756); type: functional; settings: Rattus norvegicus;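 also: cell death triggered by IL-1 beta plus TNF-alpha plus IFN-gamma mixture; protective hits raise ATP signal compared with cytokine alone wells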
# [2] = tested on: HEK293; test: EBV LMP1 TES2 canonical NF-kB signalling blockers – cell-based, HEK293, luciferase, cherry-pick, dose response (AID 588343); type: functional; settings: Homo sapiens
# [3] = Luminescence Cell-Based Dose Confirmation HTS to Identify Inhibitors of Platelet Dense Granule Release. [Related pubchem assays: 1663 (Primary HTS), 1678 (Summary of Project)]; type: functional
# [4] = biological target: Luciferin 4-monooxygenase (Photinus pyralis, UniProt P08659); test: inhibition of purified Photinus pyralis luciferase – biochemical, luminescence, dose response (AID 1891)
# Luciferin 4-monooxygenase, sequence (P08659 whole entry): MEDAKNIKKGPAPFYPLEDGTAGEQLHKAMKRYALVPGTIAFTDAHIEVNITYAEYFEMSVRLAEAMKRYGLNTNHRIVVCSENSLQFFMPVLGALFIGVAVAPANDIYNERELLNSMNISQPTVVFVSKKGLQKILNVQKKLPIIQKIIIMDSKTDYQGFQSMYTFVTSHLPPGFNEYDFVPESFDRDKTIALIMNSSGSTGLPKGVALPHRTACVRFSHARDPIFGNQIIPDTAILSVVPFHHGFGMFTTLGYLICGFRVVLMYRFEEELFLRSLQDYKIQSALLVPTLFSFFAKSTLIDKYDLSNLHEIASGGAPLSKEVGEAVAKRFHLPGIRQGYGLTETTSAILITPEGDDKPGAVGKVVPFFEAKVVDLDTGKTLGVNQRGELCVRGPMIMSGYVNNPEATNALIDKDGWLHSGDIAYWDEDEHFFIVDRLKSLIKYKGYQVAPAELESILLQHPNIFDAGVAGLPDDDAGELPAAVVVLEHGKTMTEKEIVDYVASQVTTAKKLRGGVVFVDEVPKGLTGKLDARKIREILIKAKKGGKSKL
# [5] = biological target: T1, Cytochrome P450 3A4 (Homo sapiens, UniProt P08684); settings: Potency
# T1 sequence (P08684 whole entry, the tested form may be a part): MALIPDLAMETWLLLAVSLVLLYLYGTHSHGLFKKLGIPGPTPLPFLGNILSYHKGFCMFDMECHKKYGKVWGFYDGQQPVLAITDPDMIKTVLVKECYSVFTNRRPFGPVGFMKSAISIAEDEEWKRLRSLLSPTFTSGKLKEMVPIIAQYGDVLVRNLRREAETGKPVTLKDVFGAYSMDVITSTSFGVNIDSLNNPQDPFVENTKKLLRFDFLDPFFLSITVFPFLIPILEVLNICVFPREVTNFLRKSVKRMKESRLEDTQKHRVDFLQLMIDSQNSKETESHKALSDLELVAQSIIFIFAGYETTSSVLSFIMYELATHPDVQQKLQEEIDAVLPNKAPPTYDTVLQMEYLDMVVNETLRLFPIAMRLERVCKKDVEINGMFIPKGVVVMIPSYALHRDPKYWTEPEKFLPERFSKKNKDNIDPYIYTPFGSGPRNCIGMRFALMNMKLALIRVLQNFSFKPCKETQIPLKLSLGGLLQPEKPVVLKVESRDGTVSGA
# [6] = biological target: T2, RNA-binding protein pos-1 (Caenorhabditis elegans, UniProt G5EF15); test: disruptors of C. elegans POS-1 RNA interaction – biochemical, fluorescence polarization, dose response (AID 1964);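 also: purified POS-1 fused to maltose binding protein made in E. coli; potency of compounds blocking POS-1 binding to fluorescent RNA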
# T2 sequence (G5EF15 whole entry): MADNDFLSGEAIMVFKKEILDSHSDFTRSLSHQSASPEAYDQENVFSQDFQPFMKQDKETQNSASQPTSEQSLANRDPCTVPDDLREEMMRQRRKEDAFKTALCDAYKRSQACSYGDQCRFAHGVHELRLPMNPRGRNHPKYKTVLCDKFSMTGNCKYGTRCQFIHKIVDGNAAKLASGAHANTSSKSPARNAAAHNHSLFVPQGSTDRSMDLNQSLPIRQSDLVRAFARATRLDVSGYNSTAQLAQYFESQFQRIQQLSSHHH
# [7] = biological target: T3, Zinc finger protein mex-5 (Caenorhabditis elegans, UniProt Q9XUB2); test: potency of MEX-5 RNA-binding blockers – biochemical, C. elegans, fluorescence polarization, dose response (AID 1960)
# T3 sequence (Q9XUB2 whole entry): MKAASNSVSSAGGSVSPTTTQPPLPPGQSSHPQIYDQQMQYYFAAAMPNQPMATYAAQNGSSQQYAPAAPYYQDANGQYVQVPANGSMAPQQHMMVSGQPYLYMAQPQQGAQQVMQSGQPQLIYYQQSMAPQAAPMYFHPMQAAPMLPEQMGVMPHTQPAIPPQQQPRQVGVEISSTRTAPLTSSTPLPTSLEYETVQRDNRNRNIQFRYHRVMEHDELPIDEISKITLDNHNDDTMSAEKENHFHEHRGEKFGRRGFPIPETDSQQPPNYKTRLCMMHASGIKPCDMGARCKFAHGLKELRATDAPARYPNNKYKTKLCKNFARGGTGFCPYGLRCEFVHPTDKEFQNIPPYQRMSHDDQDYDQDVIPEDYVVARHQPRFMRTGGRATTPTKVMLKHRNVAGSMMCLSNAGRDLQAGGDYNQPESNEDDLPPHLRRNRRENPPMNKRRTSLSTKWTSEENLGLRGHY
# [8] = Luminescence Cell-Based Dose Retest to Confirm Inhibitors of Cancer Stem Cells. [Related pubchem assays (depositor defined):AID2717, AID2721]; type: functional; settings: Homo sapiens
# [9] = viability of HCT116 lacking mutant beta-catenin – cell-based, human colon tumor, dose response (AID 1045); type: functional;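 also: HCT116 colon tumor cells with beta catenin knocked out; cells exposed to compound for 60 hours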
# [10] = loss of viability in HepG2 cells – cell-based, CellTiter-Glo, cherry-picked, cytotoxicity control for Shn3 inhibitor project, dose response (AID 624134); type: functional
# [11] = biological target: Paired box protein Pax-8 (Homo sapiens, UniProt Q06710); test: PAX8 transcriptional activity inhibition in RMG-I – RMG-I cells, luciferase, cherry-pick, dose response (AID 687027); type: functional, cell-based;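 also: luciferase reporter driven by Pax8 target thyroperoxidase promoter measured by SteadyGlo luminescence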
# Paired box protein Pax-8, sequence (Q06710 whole entry): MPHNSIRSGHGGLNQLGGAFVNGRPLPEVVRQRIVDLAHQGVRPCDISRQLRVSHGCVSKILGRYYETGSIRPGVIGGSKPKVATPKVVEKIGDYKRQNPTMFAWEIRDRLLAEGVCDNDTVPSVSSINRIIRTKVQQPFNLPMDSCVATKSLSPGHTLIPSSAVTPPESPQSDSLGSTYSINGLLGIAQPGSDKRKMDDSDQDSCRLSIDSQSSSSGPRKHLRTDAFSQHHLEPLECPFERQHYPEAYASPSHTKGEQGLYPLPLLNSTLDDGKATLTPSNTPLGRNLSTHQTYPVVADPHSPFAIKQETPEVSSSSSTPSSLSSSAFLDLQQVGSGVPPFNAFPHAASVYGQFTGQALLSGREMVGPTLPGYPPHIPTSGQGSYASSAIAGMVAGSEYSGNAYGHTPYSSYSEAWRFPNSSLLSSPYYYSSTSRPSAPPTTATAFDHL
# [12] = viability of PTEN-deleted HCT116 cells – cell-based, HCT116 PTEN knockout, dose response (AID 1047); type: functional;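 also: HCT116 colon tumor cells with PTEN knocked out; cells exposed to compound for 60 hours before readout; potency for loss of cell viability measured by luminescence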
# [13] = non-specific 3'UTR reporter inhibition in Clone20-Shn3RL – cell-based, Renilla luciferase, cherry-picked, counter-screen for Shn3 inhibitor project, dose response (AID 624133); type: functional
# [14] = reduction of Shn3 3'UTR-driven luciferase in osteoblasts – cell-based, Clone20 osteoblasts, firefly luciferase, cherry-picked, dose response (AID 624132); type: functional;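 also: firefly luciferase luminescence from reporter carrying the Shn3 3'UTR in osteoblasts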
# [15] = biological target: Large T antigen (Simian virus 40, UniProt P03070); type: functional, Betapolyomavirus macacae;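 also: Confirmatory-stage PubChem screen for compounds that inhibit SV40 T antigen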
# Large T antigen, sequence (P03070 whole entry): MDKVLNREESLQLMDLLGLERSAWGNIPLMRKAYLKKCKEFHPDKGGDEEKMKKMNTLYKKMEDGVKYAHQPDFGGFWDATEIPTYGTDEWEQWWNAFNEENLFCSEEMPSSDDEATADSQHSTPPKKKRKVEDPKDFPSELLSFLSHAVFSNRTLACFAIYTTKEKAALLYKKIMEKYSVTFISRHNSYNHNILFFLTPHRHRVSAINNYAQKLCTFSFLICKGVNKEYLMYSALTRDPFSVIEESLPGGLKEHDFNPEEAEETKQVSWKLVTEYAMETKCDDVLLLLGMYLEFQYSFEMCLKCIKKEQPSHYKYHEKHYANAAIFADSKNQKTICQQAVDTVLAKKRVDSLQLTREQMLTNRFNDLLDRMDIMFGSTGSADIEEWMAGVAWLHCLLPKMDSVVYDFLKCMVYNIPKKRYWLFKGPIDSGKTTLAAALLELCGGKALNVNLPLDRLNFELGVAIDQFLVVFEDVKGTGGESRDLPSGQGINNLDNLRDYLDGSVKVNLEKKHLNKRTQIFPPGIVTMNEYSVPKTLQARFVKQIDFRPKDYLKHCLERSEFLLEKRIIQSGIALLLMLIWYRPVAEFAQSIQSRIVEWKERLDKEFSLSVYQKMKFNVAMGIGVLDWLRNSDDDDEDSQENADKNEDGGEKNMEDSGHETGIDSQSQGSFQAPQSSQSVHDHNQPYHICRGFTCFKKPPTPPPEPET
# [16] = biological target: T4, Heat shock factor protein 1 (Mus musculus, UniProt P38532); test: decrease of HSF1-responsive luciferase luminescence – cell-based, NIH3T3, dose retest, confirmation (AID 2382); type: functional;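 also: NIH3T3 fibroblasts with HSF1-driven luciferase reporter stressed by proteasome inhibitor MG132; luminescence from HSF1-driven luciferase expression after 8 hours of MG132 stress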
# T4 sequence (P38532 whole entry): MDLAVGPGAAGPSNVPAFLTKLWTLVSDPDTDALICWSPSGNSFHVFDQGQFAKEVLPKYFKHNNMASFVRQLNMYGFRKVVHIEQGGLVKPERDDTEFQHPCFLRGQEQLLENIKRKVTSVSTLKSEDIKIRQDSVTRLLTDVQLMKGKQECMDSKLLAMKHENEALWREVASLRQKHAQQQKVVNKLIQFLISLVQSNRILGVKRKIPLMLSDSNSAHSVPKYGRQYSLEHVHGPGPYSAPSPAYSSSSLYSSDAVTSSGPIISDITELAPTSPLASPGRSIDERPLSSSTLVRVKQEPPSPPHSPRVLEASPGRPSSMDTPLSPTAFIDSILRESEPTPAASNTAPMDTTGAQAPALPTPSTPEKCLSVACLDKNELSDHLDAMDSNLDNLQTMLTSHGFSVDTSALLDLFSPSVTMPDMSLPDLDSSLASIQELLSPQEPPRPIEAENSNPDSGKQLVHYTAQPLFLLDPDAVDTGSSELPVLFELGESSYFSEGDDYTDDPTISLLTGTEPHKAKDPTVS
# [17] = cells; type: functional, cell-based
# [18] = cells; type: functional, cell-based; remark: listed apart in the source
# [19] = biological target: Nonstructural protein 1 (Influenza A virus, UniProt Q194T2); type: functional, Influenza A virus (A/California/07/2009(H1N1))
# Nonstructural protein 1, sequence (Q194T2 whole entry): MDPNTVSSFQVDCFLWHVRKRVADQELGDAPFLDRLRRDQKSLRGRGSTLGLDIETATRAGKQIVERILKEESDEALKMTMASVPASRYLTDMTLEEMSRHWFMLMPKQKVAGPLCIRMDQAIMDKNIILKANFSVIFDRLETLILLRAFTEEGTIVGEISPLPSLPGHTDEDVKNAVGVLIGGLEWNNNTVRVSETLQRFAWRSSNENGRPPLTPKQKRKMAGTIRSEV
# [20] = biological target: T5, Rac GTPase-activating protein 1 (Homo sapiens, UniProt Q9H0H5); test: blockers of MgcRacGAP-driven Rac1 GTP hydrolysis – biochemical, ADP Hunter fluorescence, primary and confirmatory, confirmation (AID 624330); type: functional
# T5 sequence (Q9H0H5 whole entry): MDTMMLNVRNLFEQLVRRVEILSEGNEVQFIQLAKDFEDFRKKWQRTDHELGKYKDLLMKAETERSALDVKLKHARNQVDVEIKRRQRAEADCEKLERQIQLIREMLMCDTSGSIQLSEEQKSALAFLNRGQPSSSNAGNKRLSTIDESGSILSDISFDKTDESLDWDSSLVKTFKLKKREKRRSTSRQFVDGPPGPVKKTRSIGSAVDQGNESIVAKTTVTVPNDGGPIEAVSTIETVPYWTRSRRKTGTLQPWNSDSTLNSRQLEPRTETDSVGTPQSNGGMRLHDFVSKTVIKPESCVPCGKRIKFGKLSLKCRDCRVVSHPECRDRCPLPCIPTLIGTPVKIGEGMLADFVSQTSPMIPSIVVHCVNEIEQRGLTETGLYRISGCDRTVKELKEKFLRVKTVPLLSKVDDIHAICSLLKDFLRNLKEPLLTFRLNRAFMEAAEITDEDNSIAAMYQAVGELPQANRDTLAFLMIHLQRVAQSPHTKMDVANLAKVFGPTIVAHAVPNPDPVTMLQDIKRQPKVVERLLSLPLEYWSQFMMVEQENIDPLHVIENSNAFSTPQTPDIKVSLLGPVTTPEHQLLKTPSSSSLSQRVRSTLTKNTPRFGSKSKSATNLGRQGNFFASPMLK
# [21] = biological target: T6, Cytochrome P450 1A2 (Homo sapiens, UniProt P05177);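 also: PubChem cytochrome P450 panel assay, CYP1A2 panel member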
# T6 sequence (P05177 whole entry): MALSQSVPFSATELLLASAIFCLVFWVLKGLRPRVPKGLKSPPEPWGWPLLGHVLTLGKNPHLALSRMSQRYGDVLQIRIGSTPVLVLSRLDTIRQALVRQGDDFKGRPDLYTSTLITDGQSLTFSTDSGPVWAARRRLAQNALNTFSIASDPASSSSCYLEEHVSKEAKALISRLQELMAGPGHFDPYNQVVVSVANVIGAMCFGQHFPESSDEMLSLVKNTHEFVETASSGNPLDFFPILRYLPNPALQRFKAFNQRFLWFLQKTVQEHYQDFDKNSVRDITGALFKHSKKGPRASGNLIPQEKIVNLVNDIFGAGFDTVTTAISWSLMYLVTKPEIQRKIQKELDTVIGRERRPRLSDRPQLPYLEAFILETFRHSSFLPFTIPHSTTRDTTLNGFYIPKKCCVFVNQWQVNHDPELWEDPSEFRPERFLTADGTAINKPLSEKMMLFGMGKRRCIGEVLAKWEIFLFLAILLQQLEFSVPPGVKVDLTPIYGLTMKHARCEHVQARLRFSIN
# [22] = biological target: T1, Cytochrome P450 3A4
# [23] = biological target: Cytochrome P450 2C19 (Homo sapiens, UniProt P33261); test: Cytochrome panel assay with activity outcomes. Panel member name: p450-cyp2c19 Compounds with AC50 equal or less than 10 uM are considered active; type: functional; settings: read-out: AC50
# Cytochrome P450 2C19, sequence (P33261 whole entry): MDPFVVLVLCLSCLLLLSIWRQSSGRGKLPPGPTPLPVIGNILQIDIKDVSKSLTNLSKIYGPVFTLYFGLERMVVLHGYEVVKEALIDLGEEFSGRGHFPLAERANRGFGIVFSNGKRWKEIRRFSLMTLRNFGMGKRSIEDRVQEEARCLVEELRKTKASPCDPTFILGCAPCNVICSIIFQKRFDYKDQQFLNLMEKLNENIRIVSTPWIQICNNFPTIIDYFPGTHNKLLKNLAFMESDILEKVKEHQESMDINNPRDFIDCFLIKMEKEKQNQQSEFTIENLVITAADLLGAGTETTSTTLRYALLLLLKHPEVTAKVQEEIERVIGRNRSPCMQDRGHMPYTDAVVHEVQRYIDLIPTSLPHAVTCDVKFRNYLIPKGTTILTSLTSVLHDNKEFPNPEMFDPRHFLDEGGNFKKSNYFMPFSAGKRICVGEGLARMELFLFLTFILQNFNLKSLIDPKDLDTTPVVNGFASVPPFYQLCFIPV
smiles,measurement,setting,value
COc1cccc(/C=N/NC(=O)CN2CC(c3ccccc3)CC2=O)c1O (stereo not given),AC50,[1],6.51 µM (active)
O=c1oc2ccccc2c(O)c1/C=N/c1ccccn1,AC50,[2],162 µM (active)
same,EC50,[3],> 112 µM (not active)
same,EC50,[4],> 112 µM (not active)
Cc1ccc2oc(=O)c3c4cc(O)c(O)c(C)c4oc3c2c1,AC50,[5],12.6 µM (inconclusive)
O=C(COc1ccc(Br)cc1)N1CCN(Cc2c[nH]c3ccccc23)CC1,AC50,[1],3.34 µM (active)
O=C1N=C(Nc2ccccc2Cl)S/C1=C\c1cc([N+](=O)[O-])ccc1O,EC50,[6],10.9 µM (active)
same,EC50,[7],> 300 µM (not active)
O=C(CSc1nc2ccccc2c(=O)n1CCCN1CCOCC1)Nc1ccc(Br)cc1,AC50,[2],> 350 µM (inactive)
CCCCNC(=O)C(c1ccc(OCC(=O)OC)c(C(=O)OC)c1)N(CCC1=CCCCC1)C(=O)CCCCCN1C(=O)NC(c2ccc(-c3ccccc3)cc2)C(C(=O)OCc2ccccc2)=C1C (stereo not given),AC50,[5],2.51 µM (inconclusive)
O=C(Nc1cccc(C(F)(F)F)c1)Nc1ccc(N2CCCC2)c(S(=O)(=O)Nc2ccccc2Cl)c1,AC50,[8],0.848 µM (active)
same,EC50,[9],4.39 µM (active)
same,AC50,[10],5.53 µM (active)
same,AC50,[11],6.41 µM (active)
same,EC50,[12],3.89 µM (active)
same,AC50,[13],5.49 µM (active)
same,AC50,[1],3.57 µM (active)
same,AC50,[14],4.42 µM (active)
Cc1nnc(O)nc1Nc1ccc(O)cc1,IC50,[15],4.52 µM (active)
COc1ccc(/C=N/NC(=O)CCc2nnc(O)nc2O)cc1O,IC50,[15],28.9 µM (active)
COc1ccc(C(=O)NNC(=O)c2cnccn2)cc1[N+](=O)[O-],EC50,[6],25.3 µM (active)
same,EC50,[7],1.72 µM (active)
same,EC50,[16],> 195 µM (not active)
COc1ccc(C2C(C#N)=C(/N=C/N3CCN(C)CC3)OC3=C2C(=O)CC(C)(C)C3)cc1OC (stereo not given),EC50,[6],> 300 µM (not active)
same,EC50,[7],> 300 µM (not active)
COc1cccc(/C=N/Nc2ncnc(N)c2[N+](=O)[O-])c1OC,EC50,[6],18.4 µM (active)
same,AC50,[2],3.91 µM (active)
same,EC50,[7],> 300 µM (inconclusive)
O=C(N/N=C/c1c(O)ccc2ccccc12)c1ccc(CO)nc1,EC50,[17],> 350 µM (not active)
same,EC50,[18],10.8 µM (active)
same,IC50,[19],10.6 µM (active)
CCOc1cc(/C=C2/N=C(C)C(C(=O)OC)=C2O)ccc1O,IC50,[15],5.78 µM (active)
same,IC50,[20],26.3 µM (active)
COC(=O)[C@]1(C)CC[C@@]2(C)CC[C@@]3(C)C4=CCc5c(cc(O)c(O)c5C)[C@]4(C)CC[C@@]3(C)C2C1 (stereo not given in full),AC50,[5],39.8 µM (inconclusive)
CCOc1ccc(OCc2cccc(C(=O)N3CCCCCC3)c2)cc1,AC50,[2],4.36 µM (active)
O=C(NCCc1ccccc1)c1ccccc1Cl,AC50,[2],3.98 µM (active)
CCOC(=O)C1Nc2c(F)cc(C)cc2C2C=CCC12 (stereo not given),EC50,[6],> 300 µM (not active)
same,EC50,[7],> 300 µM (not active)
CC1(OC(=O)CCc2ccccc2)C(=O)C=C2C=C(c3ccsc3)OC=C2C1=O (stereo not given),EC50,[6],49.7 µM (active)
same,EC50,[7],28.2 µM (active)
N#Cc1ccc(C23CC4(C2)[C@H](CN(Cc2ccc(-c5ccccc5)cc2)[C@@H]4c2ccccc2)C3c2ccccc2)cc1 (stereo not given in full),AC50,[5],15.8 µM (inconclusive)
Cc1ccc(S(=O)(=O)NNc2nc3ccccc3nc2C(F)(F)F)cc1,EC50,[6],39.8 µM (active)
same,EC50,[7],21.5 µM (inconclusive)
CCOC(=O)COn1c(=O)c(-c2cc3ccccc3o2)[n+]([O-])c2ccccc21,EC50,[6],> 300 µM (not active)
same,EC50,[7],27.6 µM (active)
CC(=O)NNC(=O)N1Cc2ccccc2Oc2ccc(Cl)cc21,AC50,[21],31.6 µM (inconclusive)
same,AC50,[5],12.6 µM (inconclusive)
same,AC50,[22],20 µM (inconclusive)
same,AC50,[23],5.01 µM (inconclusive)
CC1CC2C3CCC4=CC(=O)C=C[C@@]4(C)[C@]3(F)C(O)C[C@]2(C)[C@]1(O)C(=O)COP(=O)(O)O (stereo not given in full),AC50,[5],39.8 µM (inconclusive)
